Among the test systems are M19-MEL melanoma; OVCAR-4 ovarian; MALME-3M melanoma; HOP-18 NSCLC; LXFL 529 NSCLC; U251 CNS; SF-539 CNS; DLD-1 colon; SNB-78 CNS; DMS 273 small cell lung; KM20L2 colon; DMS 114 small cell lung; XF 498 CNS; P388/ADR leukemia; MCF7 breast; P388 leukemia.
What all share (assay): NCI tumour cell line growth inhibition, 48 h

Molecules are shown by their SMILES. Several values for one entry are separate records, joined by “and”; a condition that tells them apart may be missing. Equal values may be shown once.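 Briefly, cells in 96-well plates were exposed to five compound concentrations for 48 h, and endpoints were estimated by linear interpolation. TGI marks complete inhibition of growth.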 Where only a bound is given, the exact number is not on record here.

Take `O=C(CSc1nnc(Cc2ccccc2)o1)Nc1ccc(Cl)cc1`: the TGI in the assay on M19-MEL melanoma, in the assay on OVCAR-4 ovarian, in the assay on MALME-3M melanoma, in the assay with HOP-18 NSCLC, in the assay on LXFL 529 NSCLC and in the assay with U251 CNS was over 100 µM throughout. The TGI in the assay on SF-539 CNS, in the assay with DLD-1 colon, with SNB-78 CNS, with DMS 273 small cell lung, with KM20L2 colon and with DMS 114 small cell lung was over 100 µM each time.
As for `CN(C)C(=O)CC(C(=O)O)c1c[nH]c2ccccc12` (configuration not stated), the TGI in the assay with M19-MEL melanoma, in the assay on OVCAR-4 ovarian, in the assay on MALME-3M melanoma, in the assay with LXFL 529 NSCLC, in the assay with U251 CNS and in the assay on SF-539 CNS was over 100 µM throughout. Moreover, the TGI in the assay with DLD-1 colon, with DMS 273 small cell lung, with KM20L2 colon and with DMS 114 small cell lung was over 100 µM in each case.
With `NC(=O)N/N=C(\Cc1nc2ccc(C(=O)c3ccccc3)cc2[nH]c1=O)C(=O)Nc1ccc(Br)cc1`, the TGI with M19-MEL melanoma, in the assay with XF 498 CNS, in the assay on OVCAR-4 ovarian, in the assay on MALME-3M melanoma, in the assay with HOP-18 NSCLC and with LXFL 529 NSCLC was over 100 µM in each case. Besides, the TGI with U251 CNS, with SF-539 CNS, in the assay on DLD-1 colon, in the assay with SNB-78 CNS, in the assay with DMS 273 small cell lung and in the assay on KM20L2 colon was over 100 µM throughout. In the assay on DMS 114 small cell lung, this molecule displayed a TGI of over 100 µM.
On to `Nc1nc2c(ncn2CCOC(c2ccccc2)P(=O)(O)O)c(=O)[nH]1` (configuration not stated), for which the TGI with MALME-3M melanoma, with LXFL 529 NSCLC, in the assay on U251 CNS, in the assay on SF-539 CNS, in the assay with DLD-1 colon and with SNB-78 CNS was over 100 µM in each case. In addition, the TGI in the assay on DMS 273 small cell lung and in the assay on KM20L2 colon was over 100 µM throughout.
With `COC(=O)[C@@H]1c2cc3c(c(O)c2[C@@H](OC)C[C@@]1(C)O)C(=O)c1c(O)cc2c(c1C3=O)OC1O[C@@]2(C)[C@H](O)[C@@H](N(C)C)[C@@H]1O`, the TGI in the assay with M19-MEL melanoma turned out to be 0.88 µM; in the assay with P388/ADR leukemia, 15 µM; with XF 498 CNS, 0.66 µM; with MCF7 breast, 6.48 µM; in the assay on OVCAR-4 ovarian, 1.76 µM; with MALME-3M melanoma it was 2.13 µM. For the same molecule, the TGI in the assay on HOP-18 NSCLC came to 1.34 µM; with P388 leukemia, 2.36 µM; with U251 CNS, 1.92 µM; with SF-539 CNS, 7.48 µM; in the assay with DLD-1 colon, 8.83 µM; in the assay on SNB-78 CNS it was 4.54 µM. For the same molecule, the TGI in the assay with DMS 273 small cell lung came out at 0.779 µM; in the assay with KM20L2 colon, 0.794 µM; in the assay on DMS 114 small cell lung, 0.633 µM.
Take `C[n+]1c2ccccc2c(CNC(CCC(N)=O)C(=O)O)c2ccccc21` (configuration not stated): the TGI in the assay with M19-MEL melanoma was determined as 7.91 µM; in the assay on XF 498 CNS, 3.81 µM; in the assay on MCF7 breast, 7.73 µM; with OVCAR-4 ovarian, 9.24 µM; in the assay with MALME-3M melanoma, 10.6 µM; with HOP-18 NSCLC it was 11.8 µM. For the same molecule, the TGI in the assay with LXFL 529 NSCLC is 2.26 µM; with U251 CNS it was 12.8 µM; in the assay on SF-539 CNS, 5.61 µM; in the assay on DLD-1 colon, 1.83 µM; with SNB-78 CNS, 25.7 µM; in the assay with DMS 273 small cell lung, 4.44 µM. The TGI in the assay with KM20L2 colon turned out to be 12.3 µM; with DMS 114 small cell lung it was 2.04 µM.
For `CN(C)CCNCc1c2ccccc2c(CNCCN(C)C)c2ccccc12`, the TGI with M19-MEL melanoma was over 57.1 µM; in the assay on P388/ADR leukemia, over 100 µM; in the assay with XF 498 CNS, over 100 µM; with MCF7 breast, 79.8 µM; in the assay with OVCAR-4 ovarian, 72 µM; in the assay on MALME-3M melanoma, 35.4 µM. The TGI in the assay on HOP-18 NSCLC is over 100 µM; in the assay on P388 leukemia, over 56.2 µM; with U251 CNS, 56.9 µM; in the assay with SF-539 CNS, over 73.6 µM; in the assay with DLD-1 colon, over 100 µM; with SNB-78 CNS, 98.4 µM. The TGI is over 100 µM with DMS 273 small cell lung, 26 µM in the assay with KM20L2 colon and over 70.1 µM with DMS 114 small cell lung.
On to `Cc1cc2c(c3oc(C(O)(CO)C4CO4)cc(=O)c13)C(=O)c1c(O)cccc1C2=O` (configuration not stated), for which the TGI with MALME-3M melanoma is 0.00527 µM and 0.00231 µM and 0.0152 µM; in the assay with HOP-18 NSCLC it was 0.0358 µM; in the assay with U251 CNS it was 0.00411 µM; in the assay on SF-539 CNS, 0.000212 µM; in the assay with SNB-78 CNS, over 100 µM.
`O=[N+]([O-])c1ccc(NC2OCC(O)C(O)C2O)cc1` (configuration not stated): the TGI with XF 498 CNS, in the assay with OVCAR-4 ovarian, in the assay with MALME-3M melanoma, with LXFL 529 NSCLC, in the assay on U251 CNS and with SF-539 CNS was over 100 µM throughout. Besides, the TGI with DLD-1 colon, in the assay on SNB-78 CNS, in the assay on DMS 273 small cell lung, in the assay with KM20L2 colon and in the assay with DMS 114 small cell lung was over 100 µM throughout.
As for `COc1ccc(/C(Cl)=C(\C=O)c2ccc(F)cc2)cc1`, the TGI came out at 79.4 µM in the assay with M19-MEL melanoma; 48 µM in the assay with MALME-3M melanoma; 51.7 µM with HOP-18 NSCLC; 61.6 µM in the assay on LXFL 529 NSCLC; 23.5 µM with U251 CNS; 50.2 µM in the assay on SF-539 CNS. Besides, the TGI came to 50.3 µM in the assay on DLD-1 colon; 53.1 µM with SNB-78 CNS; 56.4 µM in the assay with DMS 273 small cell lung; 20.5 µM with KM20L2 colon; 45.1 µM in the assay on DMS 114 small cell lung.
Consider `O=[N+]([O-])c1ccc(/C=C/c2ccc(N=Nc3ccc(/C=C/c4ccc([N+](=O)[O-])cc4S(=O)(=O)O)c(S(=O)(=O)O)c3)cc2S(=O)(=O)O)c(S(=O)(=O)O)c1`, for which the TGI with M19-MEL melanoma, in the assay on P388/ADR leukemia, with XF 498 CNS, in the assay with MCF7 breast, in the assay with OVCAR-4 ovarian and in the assay with MALME-3M melanoma was over 100 µM throughout. Also, the TGI with HOP-18 NSCLC, with P388 leukemia, in the assay with U251 CNS, in the assay with SF-539 CNS, with DLD-1 colon and in the assay with SNB-78 CNS was over 100 µM each time. In addition, the TGI with DMS 273 small cell lung and in the assay on DMS 114 small cell lung was over 100 µM each time.
Take `CCOC(OCC)C(CC)[Se]c1ccccc1[N+](=O)[O-]` (configuration not stated): the TGI with M19-MEL melanoma was over 100 µM; with XF 498 CNS, over 49 µM; with OVCAR-4 ovarian, over 100 µM; in the assay on MALME-3M melanoma it was over 100 µM; in the assay with HOP-18 NSCLC it was over 100 µM; in the assay with LXFL 529 NSCLC, over 100 µM. Besides, the TGI in the assay with U251 CNS was 15.4 µM; in the assay on SF-539 CNS, 5.61 µM; in the assay on DLD-1 colon, over 90.2 µM; in the assay with SNB-78 CNS, over 100 µM; with DMS 273 small cell lung, 11.3 µM; with KM20L2 colon it was 6.36 µM.
On to `CCSc1nc2sc(C)c(C)c2c(=O)n1-c1ccc(C(=O)O)cc1`, for which the TGI with M19-MEL melanoma was over 100 µM; with XF 498 CNS, over 100 µM; in the assay on OVCAR-4 ovarian, over 100 µM; in the assay on MALME-3M melanoma it was over 100 µM; in the assay with HOP-18 NSCLC, 48.6 µM; in the assay with U251 CNS it was over 100 µM. Further, the TGI was 55 µM in the assay on SF-539 CNS; over 100 µM with DLD-1 colon; over 100 µM in the assay on SNB-78 CNS; over 100 µM in the assay with KM20L2 colon; over 100 µM in the assay on DMS 114 small cell lung.
As for `C=C(C)C1Cc2c(cc(O)c3c(=O)c4ccccc4n(C)c23)O1` (configuration not stated), the TGI is 41.8 µM in the assay with XF 498 CNS; 26.7 µM in the assay on OVCAR-4 ovarian; over 100 µM with MALME-3M melanoma; over 100 µM in the assay with HOP-18 NSCLC; over 100 µM in the assay on LXFL 529 NSCLC; over 100 µM in the assay on U251 CNS. Moreover, the TGI in the assay with DLD-1 colon, in the assay on SNB-78 CNS, in the assay with DMS 273 small cell lung, in the assay on KM20L2 colon and in the assay on DMS 114 small cell lung was over 100 µM in each case.
